Assay results taken from paper PMC5650142, “GPR40 partial agonists and AgoPAMs: Differentiating effects on glucose and hormonal secretions in the rodent” (PLoS ONE, 2017).
Several values for one entry are separate records, joined by “and”; a condition that tells them apart may be missing. Equal entries are not always repeated. Where two headings read alike, the source gives them in different places.

Target: human GPR40 (Homo sapiens, UniProt O14842)
Experiment: GPR40 binding assay, AgoPAM tracer [3H]25 ([3H]AP9);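 on % Bound Normalized to 100: 100% bound is tracer binding in DMSO-only wells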;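 on %Bound: 100% bound is tracer binding in DMSO-only wells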
Parameters: expressed in transfected cells; host or cells: CHO / CHO-K1 cells, membrane preparation
Description: Two small molecule tracers, the partial agonist [3H][…] and the AgoPAM [3H]25, are used to measure compound affinity at each site as described previously. Because of the allosteric coupling of the two sites and the nature of the assay, addition of a compound will either displace (binds to same site) or augment (binds to allosterically coupled site) radiotracer. Membranes expressing GPR40 were prepared from CHO cells stably expressing human GPR40. […] Sigma P8830) and were homogenized in 50 ml aliquots with a motor-driven glass Dounce homogenizer, 15 strokes at 1900 rpm on wet ice, repeating once. Homogenates were centrifuged at 2200 rpm for 10 min at 4°C. Supernatants were carefully removed and pooled. Homogenization and centrifugation were repeated until the debris pellet was translucent to maximize membrane recovery. Supernatants were then centrifuged at […] rpm for 20 min. at 4°C. […] Protein concentration was determined by Pierce BCA kit. […] The beads and membrane mixture is then vigorously mixed for 30 minutes at room temperature prior to addition to the assay. […] Next, 15 μl of the radioligand and 35 μl of the beads/membranes solution is added to each well. The assay plates are then sealed and incubated for 30 minutes at room temperature on an orbital shaker. The plates are allowed to settle for 16 hours and then counted on a TopCount scintillation counter (PE). […] Maximal % bound and IC50 are then determined for each test compound. 5 μg/well membrane together with 200 μg/well of PVT WGA SPA beads (GE #RPNG-0001) were suspended in a white 96 well plate with a final concentration of 50 μl/well in assay buffer (50 mM Tris, 10 mM MgCl2, and 2 mM EDTA). […] The plate is briefly mixed and incubated for 3-18 h at room temperature, before it is read on a MicroBeta plate counter (Perkin Elmer, MS, USA).

[1] = radioligand L-005306257, dose 0.318285 nM
[2] = radioligand L-005306257, dose 1.00578 nM
[3] = radioligand L-005306257, dose 3.17827 nM
[4] = radioligand L-005306257, dose 10.0433 nM
[5] = radioligand L-005306257, dose 31.7369 nM
[6] = radioligand L-005306257, dose 100.289 nM
[7] = radioligand L-005306257, dose 316.912 nM
[8] = radioligand L-005306257, dose 1001.44 nM
[9] = radioligand L-005306257, dose 3164.56 nM
[10] = radioligand L-005306257, dose 10000 nM

human GPR40, sequence (O14842 whole entry): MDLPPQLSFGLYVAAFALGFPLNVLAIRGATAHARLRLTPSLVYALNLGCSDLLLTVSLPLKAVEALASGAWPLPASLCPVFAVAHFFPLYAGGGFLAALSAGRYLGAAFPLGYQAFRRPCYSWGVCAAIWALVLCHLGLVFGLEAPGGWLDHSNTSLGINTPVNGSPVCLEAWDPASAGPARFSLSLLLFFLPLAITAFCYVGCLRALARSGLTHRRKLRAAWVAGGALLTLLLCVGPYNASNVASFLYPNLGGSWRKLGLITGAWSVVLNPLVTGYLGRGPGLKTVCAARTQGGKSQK

HUMAN GPR40 Binding Data %Act (AM1638 sheet, individual replicates (n), tracer not given): 103% and 99% | IC50 (AM1638 sheet, individual replicates (n), tracer not given, read-out: HUMAN GPR40 Binding Data IC50): 13.8 nM and 25.5 nM | Binding Results, % in parentheses, [^3H]AP9 (WT human GPR40, maximal % (not defined)): (101%) | IC50 (WT human GPR40, n = 2–13, read-out: Binding Results [IC50, nM], [^3H]AP9): 20 ± 8.3 nM | binding of [^3H]25 (human GPR40 membranes, competition binding): displace | % Bound Normalized to 100 [1]: 103.56% | %Bound [1]: 97.67% | inhibition at 0.000318285 µM [1]: 2.33% | % Bound Normalized to 100 [2]: 89.69% | %Bound [2]: 83.79% | inhibition at 0.00100578 µM [2]: 16.2% | % Bound Normalized to 100 [3]: 80.49% | %Bound [3]: 74.60% | inhibition at 0.00317827 µM [3]: 25.4% | % Bound Normalized to 100 [4]: 58.81% | %Bound [4]: 52.92% | inhibition at 0.0100433 µM [4]: 47.1% | % Bound Normalized to 100 [5]: 50.48% | %Bound [5]: 44.59% | inhibition at 0.0317369 µM [5]: 55.4% | % Bound Normalized to 100 [6]: 21.00% | %Bound [6]: 15.10% | inhibition at 0.100289 µM [6]: 84.9% | % Bound Normalized to 100 [7]: 13.54% | %Bound [7]: 7.64% | inhibition at 0.316912 µM [7]: 92.4% | % Bound Normalized to 100 [8]: 7.12% | %Bound [8]: 1.23% | inhibition at 1.00144 µM [8]: 98.8% | % Bound Normalized to 100 [9]: 6.42% | %Bound [9]: 0.53% | inhibition at 3.16456 µM [9]: 99.5% | % Bound Normalized to 100 [10]: 6.25% | %Bound [10]: 0.36% | inhibition at 10 µM [10]: 99.6%
Structure (SMILES): COc1ccc(F)c(-c2ccc(COc3cccc([C@@H](CC(=O)O)C4CC4)c3)cc2C2=CCCC2(C)C)c1 [AM-1638, reference compound]
